Literature values, collected in US20180221406A1, “THERAPEUTIC COMBINATIONS OF ANTIVIRAL AND ANTI-INFLAMMATORY THERAPIES” (Foresight Biotherapeutics, Inc., priority 2015, published 2018).

Columns and labels:
[1] = system: respiratory syncytial virus (RSV); conditions: in vivo
[2] = system: acute rhinosinusitis principally of viral origin; conditions: in vivo

Structure (SMILES)	Efficacy in bronchiolitis caused by RSV [1]	Efficacy in uncomplicated acute rhinosinusitis [2]
C[C@@H]1C[C@H]2[C@@H]3CCC4=CC(=O)C=C[C@]4(C)[C@@]3(F)[C@@H](O)C[C@]2(C)[C@@]1(O)C(=O)CO [dexamethasone, (8S,9R,10S,11S,13S,14S,16R,17R)-9-fluoro-11,17-dihydroxy-17-(2-hydroxyacetyl)-10,13,16-trimethyl-6,7,8,11,12,14,15,16-octahydrocyclopenta[a]phenanthren-3-one]	ineffective	–
C[C@]12C=CC(=O)C=C1CC[C@@H]1[C@@H]2[C@@H](O)C[C@@]2(C)[C@H]1CC[C@]2(O)C(=O)CO [prednisolone]	–	ineffective
